The source of these data is ChEMBL document CHEMBL1201862, “PubChem BioAssay data set” (2004).

Each structure is given as a SMILES string.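 96-well plates; 48 h exposure; 5 concentrations. Endpoints by linear interpolation between flanking doses. Not reached: highest tested concentration assigned. GI50 marks 50% less growth.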 Active and inactive are the calls of the source. No stated cut-off is given here; in the data, active = GI50 up to about 1.1 µM and inactive = higher.

Among the test systems are SR; ACHN; MDA-MB-435; NCI/ADR-RES; M14; CAKI-1; MDA-MB-231; NCI-H522; Hs-578T; MDA-N; DMS-114; A498; M19-MEL; DLD-1; SNB-78; KM-20L2; RPMI-8226; T47D; HOP-18; DMS-273.
Common to all, as to experiment: inhibition of tumour cell growth, NCI panel, 48 h

`COc1ccccc1NC(=O)/C(Cc1nc2ccc([N+](=O)[O-])cc2nc1O)=N\NC(=O)C[N+](C)(C)C`: the GI50 is 1.44 µM (inactive) in the assay on SR; > 100 µM (inactive) in the assay with ACHN; 20 µM (inactive) with MDA-MB-435; 38.6 µM (inactive) in the assay with NCI/ADR-RES; 57.1 µM (inactive) in the assay on M14; 70.3 µM (inactive) with CAKI-1. For the same compound, the GI50 is > 100 µM (inactive) in the assay on MDA-MB-231, 28.3 µM (inactive) with NCI-H522, > 100 µM (inactive) in the assay with Hs-578T and 14.9 µM (inactive) with MDA-N.

`N=C(N)NS(=O)(=O)c1ccc(Nc2c3ccccc3nc3c(C(=O)N4CCN(CCO)CC4)ccc(Cl)c23)cc1`: the GI50 in the assay on DMS-114, with ACHN, in the assay with A498, with M19-MEL, in the assay on DLD-1 and in the assay with M14 was > 100 µM (inactive) in each case. Besides, the GI50 in the assay on CAKI-1 is > 100 µM (inactive); in the assay on SNB-78, 30.5 µM (inactive); with KM-20L2, > 100 µM (inactive); with RPMI-8226, > 100 µM (inactive).

`Nc1c(Br)cc2c(c1Br)Cc1cc(Br)ccc1-2`: the GI50 in the assay with SR is > 100 µM (inactive); in the assay with ACHN, > 100 µM (inactive); in the assay on MDA-MB-435 it was > 100 µM (inactive); with A498, 0.968 µM (active); in the assay with NCI/ADR-RES it was > 100 µM (inactive); in the assay with M14, > 100 µM (inactive). Besides, the GI50 in the assay on MDA-MB-231, in the assay with NCI-H522, in the assay on Hs-578T, in the assay with T47D and in the assay on MDA-N was > 100 µM (inactive) each time.

Consider `c1nc2nc[nH]c(SSc3[nH]cnc4ncnc3-4)c-2n1`, for which the GI50 in the assay with ACHN was 3.21 µM (inactive); in the assay with A498, 14.4 µM (inactive); with NCI/ADR-RES, 0.217 µM (active); in the assay with M14 it was 1.21 µM (inactive); in the assay on Hs-578T, 5.89 µM (inactive); in the assay on T47D, 2.64 µM (inactive).

For the compound `Nc1nc(=O)n(CC(O)CO)s1` (stereo not drawn), the GI50 in the assay with SR, in the assay with DMS-114, with ACHN, in the assay on A498, in the assay on HOP-18 and with M19-MEL was > 100 µM (inactive) each time. Further, the GI50 with DLD-1, in the assay with M14, with DMS-273, in the assay with KM-20L2 and in the assay with RPMI-8226 was > 100 µM (inactive) in each case.

Turning to `S=C(N/N=C(/c1ccccc1)c1ccccn1)Nc1cccc(Cl)c1`, the GI50 is < 0.026 µM (active) with SR; 0.225 µM (active) in the assay on ACHN; 0.802 µM (active) in the assay with MDA-MB-435; 2.24 µM (inactive) with A498; 0.0432 µM (active) in the assay with NCI/ADR-RES; 0.0596 µM (active) in the assay on M14. The GI50 is 0.701 µM (active) with CAKI-1; < 0.0202 µM (active) in the assay with MDA-MB-231; < 0.0385 µM (active) with RPMI-8226; 1.52 µM (inactive) with Hs-578T; 0.00369 µM (active) in the assay with T47D; 0.557 µM (active) in the assay with MDA-N.

`Nc1ncnc2c1sc1nc3ccccc3n12`: the GI50 was 57.7 µM (inactive) in the assay with ACHN; > 100 µM (inactive) with MDA-MB-435; > 61.7 µM (inactive) in the assay on A498; > 83 µM (inactive) in the assay on NCI/ADR-RES; > 84.1 µM (inactive) in the assay on M14; 33.7 µM (inactive) in the assay with CAKI-1. Also, the GI50 in the assay with MDA-MB-231 was 44.8 µM (inactive); with NCI-H522, > 43.2 µM (inactive); in the assay with RPMI-8226 it was > 91.4 µM (inactive); in the assay with Hs-578T it was 12.2 µM (inactive); in the assay with T47D it was > 100 µM (inactive).

Consider `Cc1ccc(C(=O)C2CC3(CCC2(O)c2ccc(C)cc2)CC(=O)Nc2ccccc2C3=O)cc1` (stereo not drawn), for which the GI50 with SR is > 100 µM (inactive); in the assay on MDA-MB-435, > 100 µM (inactive); with A498, > 100 µM (inactive); with NCI/ADR-RES it was > 100 µM (inactive); with M14 it was 46.5 µM (inactive); in the assay with CAKI-1, > 100 µM (inactive). Moreover, the GI50 in the assay on MDA-MB-231 was > 100 µM (inactive); in the assay with Hs-578T, 41.1 µM (inactive); in the assay with T47D, 8.57 µM (inactive); in the assay on MDA-N, > 100 µM (inactive).

For `COc1nc(-c2cn(S(=O)(=O)c3ccc(C)cc3)c3ccc(Br)cc23)cc(C(F)(F)F)c1C#N`, the GI50 was 29.1 µM (inactive) in the assay on ACHN; 81.1 µM (inactive) with MDA-MB-435; 52.5 µM (inactive) in the assay on A498; 71.8 µM (inactive) with NCI/ADR-RES; 45.2 µM (inactive) in the assay with CAKI-1; 47.9 µM (inactive) with NCI-H522. For the same compound, the GI50 was 14.9 µM (inactive) in the assay with RPMI-8226, 19.5 µM (inactive) in the assay with T47D and > 100 µM (inactive) with MDA-N.

In the case of `CCSc1nc(N)c2c(-c3ccccc3)c3c(nc2n1)CCC3`, the GI50 in the assay on SR, in the assay with ACHN, in the assay with MDA-MB-435, with NCI/ADR-RES, in the assay on M14 and in the assay on CAKI-1 was > 100 µM (inactive) each time. Further, the GI50 with MDA-MB-231, in the assay with RPMI-8226, with Hs-578T, with T47D and in the assay with MDA-N was > 100 µM (inactive) in each case.

`Cc1[nH]c(=O)nc(S)c1C(=O)NC1C2CCCCC2NC2CCCCC21` (stereo not drawn): the GI50 with SR is 28.6 µM (inactive); in the assay with MDA-MB-435, 6.93 µM (inactive); with A498, 18.3 µM (inactive); in the assay with NCI/ADR-RES, 17.7 µM (inactive); in the assay on M14, 14.2 µM (inactive); in the assay with CAKI-1 it was 17.2 µM (inactive). Also, the GI50 is 14.9 µM (inactive) in the assay with MDA-MB-231; 26.4 µM (inactive) in the assay on RPMI-8226; 23.4 µM (inactive) with Hs-578T; 7.59 µM (inactive) in the assay on T47D; 11.5 µM (inactive) with MDA-N.

For the compound `COc1ccc(-c2c(C#N)c(N)nc3c2CCS(=O)(=O)c2ccccc2-3)cc1`, the GI50 in the assay with SR, in the assay on ACHN, with MDA-MB-435, in the assay with A498, in the assay on NCI/ADR-RES and with CAKI-1 was > 100 µM (inactive) throughout. Further, the GI50 in the assay on MDA-MB-231 is > 100 µM (inactive); in the assay on NCI-H522, > 100 µM (inactive); with Hs-578T, 37.7 µM (inactive); in the assay with T47D, > 100 µM (inactive).

On to `Cc1cccc(C)c1NC(=S)N/C=C(\C#N)C(N)=O`, for which the GI50 in the assay on ACHN, in the assay on MDA-MB-435, in the assay with NCI/ADR-RES, in the assay on M14, in the assay with CAKI-1 and with MDA-MB-231 was > 100 µM (inactive) throughout. Besides, the GI50 in the assay with NCI-H522, in the assay on RPMI-8226, with Hs-578T and in the assay with MDA-N was > 100 µM (inactive) throughout.

On to `COc1ccc(N2C(=O)CSC2c2c[nH]c3ccccc23)cc1` (stereo not drawn), for which the GI50 was 43 µM (inactive) in the assay on SR; 41.5 µM (inactive) with MDA-MB-435; > 100 µM (inactive) with M14; 72.9 µM (inactive) in the assay with MDA-MB-231; 24.5 µM (inactive) in the assay with NCI-H522; > 100 µM (inactive) with T47D. In addition, in the assay on MDA-N, the GI50 was 35.2 µM (inactive).

As to `CC(C)(C)[Si](C)(C)OCCOCn1cc(F)c(=O)[nH]c1=O`, the GI50 in the assay on SR, with ACHN, in the assay with MDA-MB-435, in the assay on A498, in the assay with NCI/ADR-RES and with M14 was > 100 µM (inactive) in each case. Further, the GI50 with CAKI-1 was > 100 µM (inactive); with NCI-H522 it was > 100 µM (inactive); in the assay on RPMI-8226 it was > 100 µM (inactive); with Hs-578T, > 100 µM (inactive); in the assay with T47D, 69 µM (inactive); in the assay on MDA-N, > 100 µM (inactive).

As for `O=C1CC(=O)N(c2ccccc2)N1/C(=C/c1ccccc1)c1ccccc1`, the GI50 in the assay with SR was 12.3 µM (inactive); with ACHN, 25.8 µM (inactive); in the assay with MDA-MB-435, 18.9 µM (inactive); in the assay with NCI/ADR-RES, 25.5 µM (inactive); in the assay with M14, 19 µM (inactive); in the assay with CAKI-1, 17.3 µM (inactive). The GI50 in the assay with MDA-MB-231 was 10.6 µM (inactive); in the assay on RPMI-8226, 10.2 µM (inactive); with Hs-578T it was 17.3 µM (inactive); in the assay on T47D, 21.3 µM (inactive); in the assay on MDA-N, 13.6 µM (inactive).

With `CCOC(=O)NC(=O)c1cn(CCNCCO)c(=O)[nH]c1=O`, the GI50 in the assay on SR, in the assay on DMS-114, in the assay with ACHN, with M19-MEL, with DLD-1 and in the assay with M14 was > 100 µM (inactive) each time. The GI50 with CAKI-1, in the assay with NCI-H522, with SNB-78 and with RPMI-8226 was > 100 µM (inactive) throughout.

Consider `CC1CN=C(Nc2cccc(C(F)(F)F)c2)S1` (stereo not drawn), for which the GI50 with SR is 21.7 µM (inactive); in the assay with ACHN, > 100 µM (inactive); in the assay with MDA-MB-435, 53.1 µM (inactive); in the assay with A498 it was 42 µM (inactive); with M14, > 100 µM (inactive); with MDA-MB-231, 28.1 µM (inactive). Moreover, the GI50 was 42.4 µM (inactive) with NCI-H522; 23.4 µM (inactive) in the assay with RPMI-8226; 66.2 µM (inactive) in the assay on Hs-578T; 54 µM (inactive) in the assay on T47D; 40.6 µM (inactive) with MDA-N.
